The target of this assay is T1, BRD9 (Homo sapiens, UniProt Q9H8M2).
T1 sequence (Q9H8M2 1-597): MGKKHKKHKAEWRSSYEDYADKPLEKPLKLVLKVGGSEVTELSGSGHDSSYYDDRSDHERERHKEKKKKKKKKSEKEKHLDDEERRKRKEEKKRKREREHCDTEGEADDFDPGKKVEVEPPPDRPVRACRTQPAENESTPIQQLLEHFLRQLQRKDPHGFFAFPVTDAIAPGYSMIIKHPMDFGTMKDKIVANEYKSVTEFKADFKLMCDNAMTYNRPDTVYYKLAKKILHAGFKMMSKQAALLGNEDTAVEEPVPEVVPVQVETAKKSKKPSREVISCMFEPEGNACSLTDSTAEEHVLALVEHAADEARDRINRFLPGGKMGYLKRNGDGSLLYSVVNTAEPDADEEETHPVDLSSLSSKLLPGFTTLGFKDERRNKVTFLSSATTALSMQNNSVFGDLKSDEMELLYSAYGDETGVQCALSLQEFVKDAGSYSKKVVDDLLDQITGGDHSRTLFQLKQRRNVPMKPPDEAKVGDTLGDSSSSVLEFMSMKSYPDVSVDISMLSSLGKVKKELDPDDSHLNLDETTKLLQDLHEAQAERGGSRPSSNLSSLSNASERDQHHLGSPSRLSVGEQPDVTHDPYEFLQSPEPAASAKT
Kind of assay: Degradation of BRD9 (IF), immunofluorescence in MV4-11 cells, 24 hours (Assay Protocol 2). In kind it is cell-based. Details: A suspension of MV4-11 cells (ATCC CRL-9591) was prepared; host or cells: MV4-11. As to conditions: BRD9 degradation; for DC50: Assay protocol 2, read-out: DC50; for Dmax: MV4-11, Assay protocol 2, read-out: Dmax. The gist of the method:
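MV4-11 cells treated with compound 24 h at 37° C., then fixed, permeabilised and immunostained for BRD9 (anti-BRD9 E4Q3F, Alexa 647 secondary, Hoechst counterstain). High-content imaging quantified nuclear BRD9 signal; % BRD9 remaining normalised to DMSO and 100 nM CFT-8634 controls.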

In patent US20260092061A1, “COMPOUNDS FOR TARGETED PROTEIN DEGRADATION” (Amphista Therapeutics Limited, priority 2022, published 2026) one finds DC50 and Dmax data, which are given here for eight molecules.

SMILES strings stand for the structures.

Consider `COc1cc(-c2cn(C)c(=O)c(C)c2C)cc(OC)c1CN1CC[C@H](Oc2cccc3c2CCN(C(=O)/C(C#N)=C/C(C)(C)C)C3C)C1` (mixture of isomers) [Compound B133, (E/Z)-2-(5-(((R)-1-(2,6-dimethoxy-4-(1,4,5-trimethyl-6-oxo-1,6-dihydropyridin-3-yl)benzyl)pyrrolidin-3-yl)oxy)-1-methyl-1,2,3,4-tetrahydroisoquinoline-2-carbonyl)-4,4-dimethylpent-2-enenitrile], for which the DC50 (in general, the concentration at which degradation of the target reaches its halfway point) lay in the range of 10 to 25 nM and the Dmax – broadly, the greatest extent of degradation seen – is 40 to 70%.
Taken in the same sequence, the figures for `COc1cc(-c2cn(C)c(=O)c(C)c2C)cc(OC)c1CN1CCN(Cc2cccc3c2CCN(C(=O)/C(C#N)=C/C2(C)CCOC2)C3C)C2(CC2)C1` (mixture of isomers) [Compound B174, (E/Z)-2-(5-((7-(2,6-dimethoxy-4-(1,4,5-trimethyl-6-oxo-1,6-dihydropyridin-3-yl)benzyl)-4,7-diazaspiro[2.5]octan-4-yl)methyl)-1-methyl-1,2,3,4-tetrahydroisoquinoline-2-carbonyl)-3-(3-methyltetrahydrofuran-3-yl)acrylonitrile] were below 1.25 nM and above 75%.
The corresponding values for `COc1cc(-c2cn(C)c(=O)c(C)c2C)cc(OC)c1CN1CCC(N(C)c2cccc3c2CCN(C(=O)/C(C#N)=C/C(C)(C)C)C3C)C(F)(F)C1` (mixture of isomers) [Compound C57] are 25 to 1000 nM and 40 to 70%.
The corresponding values for `COc1cc(-c2cn(C)c(=O)c3ccsc23)cc(OC)c1CN1CCC(Oc2cccc3c2CCN(C(=O)/C(C#N)=C/c2cccc(Br)n2)C3C)CC1` (mixture of isomers) [Compound B77] are below 1.25 nM and 40 to 70%.
As for `COc1cc(-c2cn(C)c(=O)c(C)c2C)ccc1CN1CCN(Cc2cccc3c2CCN(C(=O)/C(C#N)=C/C(C)(C)C)C3C)C2(CC2)C1` (mixture of isomers) [Compound B147, (E/Z)-2-(5-((7-(2-methoxy-4-(1,4,5-trimethyl-6-oxo-1,6-dihydropyridin-3-yl)benzyl)-4,7-diazaspiro[2.5]octan-4-yl)methyl)-1-methyl-1,2,3,4-tetrahydroisoquinoline-2-carbonyl)-4,4-dimethylpent-2-enenitrile], the DC50 was 1.25 to 10 nM and the maximal degradation (Dmax) was above 75%.
The corresponding values for `CC[C@H]1CN(Cc2cccc3c2CCN(C(=O)/C(C#N)=C/C(C)(C)C)C3C)CCN1Cc1c(OC)cc(-c2cn(C)c(=O)c(C)c2C)cc1OC` (mixture of isomers) [Compound B135, (E/Z)-2-(5-(((S)-4-(2,6-dimethoxy-4-(1,4,5-trimethyl-6-oxo-1,6-dihydropyridin-3-yl)benzyl)-3-ethylpiperazin-1-yl)methyl)-1-methyl-1,2,3,4-tetrahydroisoquinoline-2-carbonyl)-4,4-dimethylpent-2-enenitrile] are 1.25 to 10 nM and above 75%.
The corresponding values for `COc1cc(-c2cn(C)c(=O)c(C)c2C)cc(OC)c1C(=O)N1CCN(Cc2cccc3c2CCN(C(=O)/C(C#N)=C/c2cccc(Br)n2)C3C)CC1` (mixture of isomers) [Compound B80, (E/Z)-3-(6-bromopyridin-2-yl)-2-(5-((4-(2,6-dimethoxy-4-(1,4,5-trimethyl-6-oxo-1,6-dihydropyridin-3-yl)benzoyl)piperazin-1-yl)methyl)-1-methyl-1,2,3,4-tetrahydroisoquinoline-2-carbonyl)acrylonitrile] are below 1.25 nM and 40 to 70%.
Taken in the same sequence, the figures for `COc1cc(-c2cn(C)c(=O)c(C)c2C)cc(OC)c1CN1C[C@H](C)N(Cc2cccc3c2CCN(C(=O)/C(C#N)=C/C(C)(C)CF)C3C(C)C)C[C@H]1C` (mixture of isomers) [Compound C98, (E/Z)-2-(5-(((2S,5R)-4-(2,6-dimethoxy-4-(1,4,5-trimethyl-6-oxo-1,6-dihydropyridin-3-yl)benzyl)-2,5-dimethylpiperazin-1-yl)methyl)-1-isopropyl-1,2,3,4-tetrahydroisoquinoline-2-carbonyl)-5-fluoro-4,4-dimethylpent-2-enenitrile] were 10 to 25 nM and above 75%.
